The test concerns the target Alcohol dehydrogenase 1 (Saccharomyces cerevisiae) (UniProt P00330). The test is described as follows: Inhibitory activity against yeast alcohol dehydrogenase.

Each structure is given as a SMILES string.

Sequence of Alcohol dehydrogenase 1 (Saccharomyces cerevisiae) (P00330 whole entry, looked up): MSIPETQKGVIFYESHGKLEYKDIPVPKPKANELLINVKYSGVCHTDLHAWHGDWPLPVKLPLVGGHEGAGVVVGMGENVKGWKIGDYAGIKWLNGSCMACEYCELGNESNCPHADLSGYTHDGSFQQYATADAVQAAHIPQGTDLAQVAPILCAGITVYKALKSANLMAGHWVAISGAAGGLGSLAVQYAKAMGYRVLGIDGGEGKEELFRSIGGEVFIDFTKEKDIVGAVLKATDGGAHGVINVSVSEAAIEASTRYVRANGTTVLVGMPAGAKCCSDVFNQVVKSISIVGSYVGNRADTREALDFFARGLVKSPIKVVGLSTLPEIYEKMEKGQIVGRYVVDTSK

For the compound `N#CN(OC(=O)c1ccccc1)C(=O)c1ccccc1`, the midpoint of inhibition, the IC50, lay at 25 µM. That is a double-digit micromolar value. Consider `CC(=O)ON(C(C)=O)S(=O)(=O)c1ccc(Cl)cc1`, for which the IC50 came out at 39 µM.

These data come from BindingDB's records for doi:10.1021/jm00098a008 (University of Minnesota, 1992).
